Test results as given in the supplement of paper PMC10307832.

What was measured:
Assay in all cases: relative viability (nuclei count vs DMSO), 5 days (fraction); higher = more cells survive
SGI-1776 + Phenformin = compound: CN1CCC(CNc2ccc3ncc(-c4cccc(OC(F)(F)F)c4)n3n2)CC1 [SGI-1776] + N=C(N)NC(=N)NCCc1ccccc1 [Phenformin] (partner 250 µM)
Summary of the method: (§1)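 After 5 days of treatment, lung cancer cells in 1536-well plates were fixed and stained in a single step (final 0.05% Triton X-100, 1% formaldehyde, 1 ug/ml Hoechst) and their nuclei counted on 4× images. Treatment had been applied by pin tool the day after seeding as one drug alone or as a fixed anchor-drug dose with five library-drug doses (not always all listed) in √10 steps. Relative viability is the nuclei count of treated wells divided by that of vehicle wells, and values are medians of duplicate plates.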

[1] = compound: C1COCCN1C2=NC(=NC3=C2OC4=C3C=CC=N4)C5=CC(=CC=C5)NC(=O)C6=CN=C(C=C6)N + CC(=O)c1c(C)c2cnc(Nc3ccc(N4CCNCC4)cn3)nc2n(C2CCCC2)c1=O [Palbociclib] (partner 0.5 µM)
Summary of the method: as §1

Entinostat + Phenformin = compound: Nc1ccccc1NC(=O)c1ccc(CNC(=O)OCc2cccnc2)cc1 [Entinostat] + N=C(N)NC(=N)NCCc1ccccc1 [Phenformin] (partner 250 µM)
Summary of the method: as §1

SGI-1776 + Olaparib = compound: CN1CCC(CNc2ccc3ncc(-c4cccc(OC(F)(F)F)c4)n3n2)CC1 [SGI-1776] + O=C(c1cc(Cc2n[nH]c(=O)c3ccccc23)ccc1F)N1CCN(C(=O)C2CC2)CC1 [Olaparib] (partner 8 µM)
Summary of the method: as §1

| Cell Line | relative viability (SGI-1776 + Phenformin; first compound 0.08 µM) | relative viability (SGI-1776 + Phenformin; first compound 0.8 µM) | relative viability (SGI-1776 + Phenformin; first compound 2.53 µM) | relative viability (SGI-1776 + Phenformin; first compound 8 µM) | relative viability ([1]; first compound 0.02 µM) | relative viability ([1]; first compound 0.06325 µM) | relative viability ([1]; first compound 0.2 µM) | relative viability ([1]; first compound 0.6325 µM) | relative viability ([1]; first compound 2 µM) | relative viability (Entinostat + Phenformin; first compound 0.02 µM) | relative viability (Entinostat + Phenformin; first compound 0.06325 µM) | relative viability (Entinostat + Phenformin; first compound 0.2 µM) | relative viability (Entinostat + Phenformin; first compound 0.6325 µM) | relative viability (Entinostat + Phenformin; first compound 2 µM) | relative viability (SGI-1776 + Olaparib; first compound 0.08 µM) | relative viability (SGI-1776 + Olaparib; first compound 0.8 µM) | relative viability (SGI-1776 + Olaparib; first compound 2.53 µM) | relative viability (SGI-1776 + Olaparib; first compound 8 µM) |
| --- | --- | --- | --- | --- | --- | --- | --- | --- | --- | --- | --- | --- | --- | --- | --- | --- | --- | --- |
| LCLC-97TM1 | 0.487 | 0.434 | 0.465 | 0.456 | 0.226 | 0.26 | 0.236 | 0.323 | 0.162 | 0.423 | 0.376 | 0.392 | 0.465 | 0.395 | 0.421 | 0.421 | 0.419 | 0.439 |
| HCC-78 | 0.779 | 0.775 | 0.695 | 0.592 | 0.48 | 0.484 | 0.476 | 0.427 | 0.378 | 0.819 | 0.751 | 0.55 | 0.329 | 0.27 | 0.891 | 0.91 | 0.801 | 0.95 |
| NCI-H1975 | 0.426 | 0.41 | 0.403 | 0.379 | 0.589 | 0.777 | 0.48 | 0.455 | 0.38 | 0.376 | 0.348 | 0.342 | 0.238 | 0.19 | 0.877 | 0.791 | 0.73 | 0.638 |
